Measurements from US20020137929A1, “1 - (3-heterocyclylphenyl) isothiourea, -isourea, -guanidine and -amidine herbicidal agents” (Intellectual Property Department, BASF Aktiengesellschaft, priority 1998, published 2002).

Legend:
ABUTH (Velvetleaf) [1] = assay: Postemergence herbicidal evaluation; assay type: in vivo, Abutilon theophrasti; details: postemergence
Outline: (§1)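 Compound is applied as a foliar spray to seedlings about two weeks old, formulated in equal parts acetone and water with 0.5% TWEEN 20 and delivered at 40 psi to give about 0.0156–0.500 kg per hectare. Injury is rated visually 0–9 after four to five weeks.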

[2] = system: CHEAL (Lambsquarters, Common); assay: Postemergence herbicidal evaluation; assay type: in vivo, Chenopodium album; details: postemergence
Outline: as §1

[3] = system: IPOHE (Morningglory, Ivyleaf); assay: Postemergence herbicidal evaluation; assay type: in vivo, Ipomoea hederacea; details: postemergence
Outline: as §1

ECHCG (Barnyardgrass) [4] = assay: Postemergence herbicidal evaluation; assay type: in vivo, Echinochloa crus-galli; details: postemergence
Outline: as §1

SETVI (Foxtail, Green) = assay: Postemergence herbicidal evaluation; assay type: in vivo, Setaria viridis; details: postemergence
Outline: as §1

ORYSAT (Rice, Tebonnet) = assay: Postemergence herbicidal evaluation; assay type: in vivo, Oryza sativa, (L.) Tebonnet; details: postemergence
Outline: as §1

ZEAMX (Corn, Field) [5] = assay: Postemergence herbicidal evaluation; assay type: in vivo, Zea mays; details: postemergence
Outline: as §1

ABUTH (Velvetleaf) [6] = assay: Preemergence herbicidal evaluation; assay type: in vivo, Abutilon theophrasti; details: rated 4-5 weeks after treatment, rating scale 0-9
Outline: (§2)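 Greenhouse preemergence test: seed-soil mix sown on ~1 inch soil; aqueous acetone spray at equivalent of ~0.0156–0.500 kg/ha; greenhouse-held and watered; scored 0–9 visually at 4–5 weeks.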

CASOB (Sicklepod) = assay: Preemergence herbicidal evaluation; assay type: in vivo, Cassia obtusifolia; details: rated 4-5 weeks after treatment, rating scale 0-9
Outline: as §2

[7] = system: CHEAL (Lambsquarters, Common); assay: Preemergence herbicidal evaluation; assay type: in vivo, Chenopodium album; details: rated 4-5 weeks after treatment, rating scale 0-9
Outline: as §2

[8] = system: IPOHE (Morningglory, Ivyleaf); assay: Preemergence herbicidal evaluation; assay type: in vivo, Ipomoea hederacea; details: rated 4-5 weeks after treatment, rating scale 0-9
Outline: as §2

ECHCG (Barnyardgrass) [9] = assay: Preemergence herbicidal evaluation; assay type: in vivo, Echinochloa crus-galli; details: rated 4-5 weeks after treatment, rating scale 0-9
Outline: as §2

[10] = system: GLXMAW (Soybean, Williams); assay: Preemergence herbicidal evaluation; assay type: in vivo, Glycine max, (L.) Merr. cv Williams; details: rated 4-5 weeks after treatment, rating scale 0-9
Outline: as §2

[11] = system: TRZAWR (Wheat, Winter, cv Riband); assay: Preemergence herbicidal evaluation; assay type: in vivo, Triticum aestivum; details: rated 4-5 weeks after treatment, rating scale 0-9
Outline: as §2

ZEAMX (Corn, Field) [12] = assay: Preemergence herbicidal evaluation; assay type: in vivo, Zea mays; details: rated 4-5 weeks after treatment, rating scale 0-9
Outline: as §2

Cn1c(C(F)(F)F)cc(=O)n(-c2cc(N=C3SCC(=O)N3Cc3ccncc3)c(Cl)cc2F)c1=O [Compound 133, 3-{4-Chloro-2-fluoro-5-{[4-oxo-3-(4-pyridylmethyl)-2-thiazolidinylidene]amino}phenyl}-1-methyl-6-(trifluoromethyl)-2,4(1H,3H)-pyrimidinedione]
0.0: Preemergence herbicidal rating ABUTH (ABUTH (Velvetleaf) [6]; rate 0.0313 kg/ha) | Preemergence herbicidal rating ABUTH (ABUTH (Velvetleaf) [6]; rate 0.0625 kg/ha) | Preemergence herbicidal rating CASOB (CASOB (Sicklepod); rate 0.0313 kg/ha) | Preemergence herbicidal rating CASOB (CASOB (Sicklepod); rate 0.0625 kg/ha) | Preemergence herbicidal rating CASOB (CASOB (Sicklepod); rate 0.1250 kg/ha) | Preemergence herbicidal rating IPOHE ([8]; rate 0.0313 kg/ha) | Preemergence herbicidal rating IPOHE ([8]; rate 0.0625 kg/ha) | Preemergence herbicidal rating IPOHE ([8]; rate 0.1250 kg/ha) | Preemergence herbicidal rating ECHCG (ECHCG (Barnyardgrass) [9]; rate 0.0313 kg/ha) | Preemergence herbicidal rating ECHCG (ECHCG (Barnyardgrass) [9]; rate 0.0625 kg/ha) | Preemergence herbicidal rating ECHCG (ECHCG (Barnyardgrass) [9]; rate 0.1250 kg/ha) | Preemergence herbicidal rating ECHCG (ECHCG (Barnyardgrass) [9]; rate 0.2500 kg/ha) | Preemergence herbicidal rating GLXMAW ([10]; rate 0.0313 kg/ha) | Preemergence herbicidal rating GLXMAW ([10]; rate 0.0625 kg/ha) | Preemergence herbicidal rating GLXMAW ([10]; rate 0.1250 kg/ha) | Preemergence herbicidal rating GLXMAW ([10]; rate 0.2500 kg/ha) | Preemergence herbicidal rating TRZAWR ([11]; rate 0.0313 kg/ha) | Preemergence herbicidal rating TRZAWR ([11]; rate 0.0625 kg/ha) | Preemergence herbicidal rating TRZAWR ([11]; rate 0.1250 kg/ha) | Preemergence herbicidal rating TRZAWR ([11]; rate 0.2500 kg/ha) | Preemergence herbicidal rating ZEAMX (ZEAMX (Corn, Field) [12]; rate 0.0313 kg/ha) | Preemergence herbicidal rating ZEAMX (ZEAMX (Corn, Field) [12]; rate 0.0625 kg/ha) | Preemergence herbicidal rating ZEAMX (ZEAMX (Corn, Field) [12]; rate 0.1250 kg/ha) | Preemergence herbicidal rating ZEAMX (ZEAMX (Corn, Field) [12]; rate 0.2500 kg/ha)
5.0: Preemergence herbicidal rating ABUTH (ABUTH (Velvetleaf) [6]; rate 0.2500 kg/ha)
2.0: Herbicidal rating SETVI (SETVI (Foxtail, Green); rate 0.0625 kg/ha)
9.0: Herbicidal rating ABUTH (ABUTH (Velvetleaf) [1]; rate 0.0156 kg/ha) | Herbicidal rating ABUTH (ABUTH (Velvetleaf) [1]; rate 0.0313 kg/ha) | Herbicidal rating ABUTH (ABUTH (Velvetleaf) [1]; rate 0.0625 kg/ha) | Herbicidal rating CHEAL ([2]; rate 0.0156 kg/ha) | Herbicidal rating CHEAL ([2]; rate 0.0625 kg/ha) | Herbicidal rating IPOHE ([3]; rate 0.0156 kg/ha) | Herbicidal rating IPOHE ([3]; rate 0.0313 kg/ha) | Herbicidal rating IPOHE ([3]; rate 0.0625 kg/ha) | Preemergence herbicidal rating CASOB (CASOB (Sicklepod); rate 0.2500 kg/ha) | Preemergence herbicidal rating CHEAL ([7]; rate 0.0313 kg/ha) | Preemergence herbicidal rating CHEAL ([7]; rate 0.0625 kg/ha) | Preemergence herbicidal rating CHEAL ([7]; rate 0.1250 kg/ha) | Preemergence herbicidal rating CHEAL ([7]; rate 0.2500 kg/ha)
1.0: Herbicidal rating ECHCG (ECHCG (Barnyardgrass) [4]; rate 0.0156 kg/ha) | Herbicidal rating ECHCG (ECHCG (Barnyardgrass) [4]; rate 0.0313 kg/ha) | Herbicidal rating ECHCG (ECHCG (Barnyardgrass) [4]; rate 0.0625 kg/ha) | Herbicidal rating SETVI (SETVI (Foxtail, Green); rate 0.0156 kg/ha) | Herbicidal rating SETVI (SETVI (Foxtail, Green); rate 0.0313 kg/ha) | Preemergence herbicidal rating ABUTH (ABUTH (Velvetleaf) [6]; rate 0.1250 kg/ha) | Preemergence herbicidal rating IPOHE ([8]; rate 0.2500 kg/ha)
2.5: Herbicidal rating ORYSAT (ORYSAT (Rice, Tebonnet); rate 0.0156 kg/ha) | Herbicidal rating ORYSAT (ORYSAT (Rice, Tebonnet); rate 0.0313 kg/ha)
3.0: Herbicidal rating ORYSAT (ORYSAT (Rice, Tebonnet); rate 0.0625 kg/ha)
6.0: Herbicidal rating CHEAL ([2]; rate 0.0313 kg/ha)
4.0: Herbicidal rating ZEAMX (ZEAMX (Corn, Field) [5]; rate 0.0156 kg/ha) | Herbicidal rating ZEAMX (ZEAMX (Corn, Field) [5]; rate 0.0313 kg/ha) | Herbicidal rating ZEAMX (ZEAMX (Corn, Field) [5]; rate 0.0625 kg/ha)

Cn1c(C(F)(F)F)cc(=O)n(-c2cc(N=C3SCC(=O)N3Cc3cccc(Cl)c3)c(Cl)cc2F)c1=O [Compound 136, 3-{4-Chloro-5-{[3-(m-chlorobenzyl)-4-oxo-2-thiazolidinylidene]amino}-2-fluorophenyl}-1-methyl-6-(trifluoromethyl)-2,4(1H,3H)-pyrimidinedione]
0.0: Preemergence herbicidal rating CASOB (CASOB (Sicklepod); rate 0.0156 kg/ha) | Preemergence herbicidal rating CASOB (CASOB (Sicklepod); rate 0.0313 kg/ha) | Preemergence herbicidal rating CASOB (CASOB (Sicklepod); rate 0.0625 kg/ha) | Preemergence herbicidal rating CASOB (CASOB (Sicklepod); rate 0.1250 kg/ha) | Preemergence herbicidal rating CASOB (CASOB (Sicklepod); rate 0.2500 kg/ha) | Preemergence herbicidal rating IPOHE ([8]; rate 0.0156 kg/ha) | Preemergence herbicidal rating IPOHE ([8]; rate 0.0313 kg/ha) | Preemergence herbicidal rating IPOHE ([8]; rate 0.0625 kg/ha) | Preemergence herbicidal rating IPOHE ([8]; rate 0.1250 kg/ha) | Preemergence herbicidal rating IPOHE ([8]; rate 0.2500 kg/ha) | Preemergence herbicidal rating ECHCG (ECHCG (Barnyardgrass) [9]; rate 0.0156 kg/ha) | Preemergence herbicidal rating ECHCG (ECHCG (Barnyardgrass) [9]; rate 0.0313 kg/ha) | Preemergence herbicidal rating ECHCG (ECHCG (Barnyardgrass) [9]; rate 0.0625 kg/ha) | Preemergence herbicidal rating ECHCG (ECHCG (Barnyardgrass) [9]; rate 0.1250 kg/ha) | Preemergence herbicidal rating ECHCG (ECHCG (Barnyardgrass) [9]; rate 0.2500 kg/ha) | Preemergence herbicidal rating GLXMAW ([10]; rate 0.0156 kg/ha) | Preemergence herbicidal rating GLXMAW ([10]; rate 0.0313 kg/ha) | Preemergence herbicidal rating GLXMAW ([10]; rate 0.0625 kg/ha) | Preemergence herbicidal rating TRZAWR ([11]; rate 0.0156 kg/ha) | Preemergence herbicidal rating TRZAWR ([11]; rate 0.0313 kg/ha) | Preemergence herbicidal rating TRZAWR ([11]; rate 0.0625 kg/ha) | Preemergence herbicidal rating ZEAMX (ZEAMX (Corn, Field) [12]; rate 0.0156 kg/ha) | Preemergence herbicidal rating ZEAMX (ZEAMX (Corn, Field) [12]; rate 0.0313 kg/ha) | Preemergence herbicidal rating ZEAMX (ZEAMX (Corn, Field) [12]; rate 0.0625 kg/ha)
6.0: Herbicidal rating SETVI (SETVI (Foxtail, Green); rate 0.0313 kg/ha) | Herbicidal rating SETVI (SETVI (Foxtail, Green); rate 0.0625 kg/ha)
2.5: Herbicidal rating ORYSAT (ORYSAT (Rice, Tebonnet); rate 0.0156 kg/ha) | Herbicidal rating ORYSAT (ORYSAT (Rice, Tebonnet); rate 0.0625 kg/ha)
1.0: Preemergence herbicidal rating GLXMAW ([10]; rate 0.1250 kg/ha) | Preemergence herbicidal rating TRZAWR ([11]; rate 0.1250 kg/ha) | Preemergence herbicidal rating TRZAWR ([11]; rate 0.2500 kg/ha) | Preemergence herbicidal rating ZEAMX (ZEAMX (Corn, Field) [12]; rate 0.1250 kg/ha)
2.0: Herbicidal rating ECHCG (ECHCG (Barnyardgrass) [4]; rate 0.0156 kg/ha) | Preemergence herbicidal rating CHEAL ([7]; rate 0.0156 kg/ha) | Preemergence herbicidal rating GLXMAW ([10]; rate 0.2500 kg/ha)
9.0: Herbicidal rating ABUTH (ABUTH (Velvetleaf) [1]; rate 0.0156 kg/ha) | Herbicidal rating ABUTH (ABUTH (Velvetleaf) [1]; rate 0.0313 kg/ha) | Herbicidal rating ABUTH (ABUTH (Velvetleaf) [1]; rate 0.0625 kg/ha) | Herbicidal rating CHEAL ([2]; rate 0.0156 kg/ha) | Herbicidal rating CHEAL ([2]; rate 0.0313 kg/ha) | Herbicidal rating CHEAL ([2]; rate 0.0625 kg/ha) | Herbicidal rating IPOHE ([3]; rate 0.0156 kg/ha) | Herbicidal rating IPOHE ([3]; rate 0.0313 kg/ha) | Herbicidal rating IPOHE ([3]; rate 0.0625 kg/ha) | Preemergence herbicidal rating ABUTH (ABUTH (Velvetleaf) [6]; rate 0.0313 kg/ha) | Preemergence herbicidal rating ABUTH (ABUTH (Velvetleaf) [6]; rate 0.0625 kg/ha) | Preemergence herbicidal rating ABUTH (ABUTH (Velvetleaf) [6]; rate 0.1250 kg/ha) | Preemergence herbicidal rating ABUTH (ABUTH (Velvetleaf) [6]; rate 0.2500 kg/ha) | Preemergence herbicidal rating CHEAL ([7]; rate 0.0313 kg/ha) | Preemergence herbicidal rating CHEAL ([7]; rate 0.0625 kg/ha) | Preemergence herbicidal rating CHEAL ([7]; rate 0.1250 kg/ha) | Preemergence herbicidal rating CHEAL ([7]; rate 0.2500 kg/ha)
4.0: Herbicidal rating SETVI (SETVI (Foxtail, Green); rate 0.0156 kg/ha) | Herbicidal rating ZEAMX (ZEAMX (Corn, Field) [5]; rate 0.0156 kg/ha) | Herbicidal rating ZEAMX (ZEAMX (Corn, Field) [5]; rate 0.0313 kg/ha) | Herbicidal rating ZEAMX (ZEAMX (Corn, Field) [5]; rate 0.0625 kg/ha) | Preemergence herbicidal rating ABUTH (ABUTH (Velvetleaf) [6]; rate 0.0156 kg/ha)
3.0: Herbicidal rating ECHCG (ECHCG (Barnyardgrass) [4]; rate 0.0313 kg/ha) | Herbicidal rating ECHCG (ECHCG (Barnyardgrass) [4]; rate 0.0625 kg/ha) | Herbicidal rating ORYSAT (ORYSAT (Rice, Tebonnet); rate 0.0313 kg/ha) | Preemergence herbicidal rating ZEAMX (ZEAMX (Corn, Field) [12]; rate 0.2500 kg/ha)
